Data as given in patent US10072027B2, “Preparation of high-purity gadobutrol” (BAYER INTELLECTUAL PROPERTY GMBH, priority 2011, dated 2018).

Legend:
Type in all cases: physicochemical
[1] = Solubility of polymorphs I and II in water; settings: for Solubility in water: at 20° C. in water
[2] = Stability on storage under ICH conditions
Description: Three batches of monohydrate I and one batch of monohydrate II were stored under ICH conditions. […] No decomposition products were observed, and no other parameters of the specification were changed substantially. On storage, the batches maintained their solid state.

[3] = Dissolution of the active compound during preparation of the pharmaceutical
Method: Differences between the two monohydrates I and II were observed during dissolution of the active compound. In general, the time required to get monohydrate I into solution is 45 minutes at 40-50° C.

[4] = 6 months at 40° C./75% relative atmospheric humidity
[5] = 36 months at 25° C./60% relative atmospheric humidity
[6] = 36 months at 30° C./75% relative atmospheric humidity

For `O=C([O-])CN1CCN(CC(=O)[O-])CCN(C(CO)C(O)CO)CCN(CC(=O)[O-])CC1.[Gd+3]` (centres unmarked) [gadobutrol, Gd complex of N-(1-hydroxymethyl-2,3-dihydroxypropyl)-1,4,7-triscarboxymethyl-1,4,7,10-tetraazacyclododecane], the “Solubility in water (in words)” value ([1]; water) was “soluble in water in almost any ratio”.

In the case of `O.O=C([O-])CN1CCN(CC(=O)[O-])CCN([C@H](CO)[C@H](O)CO)CCN(CC(=O)[O-])CC1.[Gd+3]` [monohydrate II], the Solubility in water [1] is reported as 922 ± 9 mg/mL, the Stability on storage [2, 4] is reported as “remained unchanged” and the Stability on storage [2, 5] is reported as “remained unchanged”. For the same compound, the Stability on storage [2, 6] was “remained unchanged” and the “dissolution state during the time monohydrate I needs” value ([3]; 45 minutes at 40-50° C.) was “incompletely dissolved”.

In the case of `O.O=C([O-])CN1CCN(CC(=O)[O-])CCN([C@H](CO)[C@H](O)CO)CCN(CC(=O)[O-])CC1.[Gd+3]` [monohydrate I], the Solubility in water [1] is reported as 1081 ± 2 mg/mL, the Stability on storage [2, 4] is reported as “remained unchanged” and the Stability on storage [2, 5] is reported as “remained unchanged”. For the same compound, the Stability on storage [2, 6] was “remained unchanged” and the “time required to get into solution” value ([3]; at 40-50° C.) was 45 min.
